Laboratory results as given in patent US4157347A, “N-cyano isothioureas” (Bristol-Myers Company, priority 1978, dated 1979).
“Also recorded” adds a separate entry of the source.

Experiments:
histamine H2-receptors = target: T1, histamine H2-receptors (Cavia porcellus, UniProt P47747); test: Histamine H2-receptor antagonism, isolated guinea pig right atria assay; type: cell-based
T1 construct: The spontaneously beating right atrium was dissected free from other tissues; from tissue; host or cells: isolated spontaneously beating right atrium of male Hartley guinea pigs
T1 sequence (P47747 whole entry): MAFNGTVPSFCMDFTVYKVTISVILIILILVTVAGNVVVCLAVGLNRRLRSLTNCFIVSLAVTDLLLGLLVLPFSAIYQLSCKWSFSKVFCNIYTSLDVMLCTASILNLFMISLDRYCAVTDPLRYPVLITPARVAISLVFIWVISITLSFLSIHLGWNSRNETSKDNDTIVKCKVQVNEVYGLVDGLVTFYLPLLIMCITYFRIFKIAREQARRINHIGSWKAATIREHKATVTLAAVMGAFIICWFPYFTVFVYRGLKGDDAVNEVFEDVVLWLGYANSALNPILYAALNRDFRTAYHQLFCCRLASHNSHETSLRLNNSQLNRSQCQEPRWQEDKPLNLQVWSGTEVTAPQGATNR
Experimental: Subsequent investigations by Hughes and Coret, Proc. Soc. […] Black et al., Agents and Actions, 3, 133 (1973) and Brimblecombe et al., Fed. […] The present comparative studies were carried out using a modification of the procedure reported by Reinhardt et al., Agents and Actions, 4, 217 (1974).
Male Hartley strain guinea pigs (350-450 gm.) were sacrificed by a blow on the head. The heart was excised and placed in a Petri dish of oxygenated (95% O2, 5% CO2) modified Krebs solution (g./liter: NaCl 6.6, KCl 0.35, MgSO4.7 H2 O 0.295, KH2 PO4 0.162, CaCl2 0.238, NaHCO3 2.1 and dextrose 2.09). The spontaneously beating right atrium was dissected free from other tissues and a silk thread (4-0) attached to each end. The atrium was suspended in a 20 ml. muscle chamber containing oxygenated modified Krebs solution maintained at 32° C. Atrial contractions were recorded isometrically by means of a Grass FT 0.03 force displacement transducer and recordings of contractile force and rate were made with a Beckman RP Dynograph.
A resting tension of 1 g. was applied to the atrium and it was allowed to equilibrate for 1 hour.
Concentration-response curve displacement factors were calculated as follows: [formula] The factor obtained for BL-5641 was then expressed as a ratio of the factor obtained for cimetidine. [formula]

gastric acid output = test: Gastric antisecretory activity in the two hour pylorus ligated (Shay) rat; type: in vivo, rat (male Long Evans)
Description: Determination of Gastric Antisecretory Activity in the Two Hour Pylorus Ligated (Shay) Rat
The pyloric ligation procedure in the rat was designed by Shay et al., Gastroenterology, 5,53 (1945) for the study of perforating gastric ulcers; however, as the method became known, it was also employed as a means of studying rat gastric secretion, Shay et al., Gastroenterology, 26, 906 (1954), Brodie, D. A., Am. J. Dig. Dis., 11, 231 (1966). A modification of this procedure is presently used to evaluate compounds for gastric antisecretory activity.
Male Long Evans rats, 280-300 gm., are used. The animals are placed in individual cages and fasted for 24 hours with free access to water. Under ether anesthesia, the stomach is reached through a midline incision, and a cotton-thread ligature is placed around the pylorus. After wound closure, ether administration is stopped and either BL-5641, cimetidine or vehicle are administered intraperitoneally in a volume of […]. BL-5641 and cimetidine are solubilized with one equivalent of HCl and brought to the proper volume with water. The animals are returned to their cages from which the water bottles have been removed and two hours later are sacrificed with ether. The stomach is removed and the two hour gastric collection is drained into a graduated test tube for volume determination. Titratable acidity is measured by titrating a one ml. sample to pH 7.0 with 0.02 N NaOH, using an Autoburet and an electrometric pH meter (Radiometer). Titratable acid output is calculated in microequivalents by multiplying the volume in milliliters by the acid concentration in milliequivalents per liter. The percent inhibition of acid output is calculated as follows [formula]

[1] = system: histamine-induced gastric acid output; test: Gastric antisecretory activity in the gastric fistula dog (histamine-induced gastric acid output); type: in vivo, dog (beagle)
Experimental: Determination of Gastric Antisecretory Activity in the Gastric Fistula Dog
Thomas type [Thomas, J. E., Proc. Soc. exp. Biol. Med., 46, 260 (1941)] stainless steel cannulae are inserted into the stomachs of beagle dogs (10-12 kg.) just orad to the pyloric gland area near the greater curvature to provide a chronic gastric fistula. Animals are allowed to recover for at least two months before any testing is done. Dogs are fasted overnight (~18 hours) with water ad lib prior to each experiment. The dogs are placed in a sling and an eight inch inside needle catheter (C. R. Baird, Inc.) with a two inch 17 gauge needle is inserted into a leg vein for purposes of drug administration. Gastric secretions are collected every 15 minutes by gravity drainage from the opened cannula. […] A modification of the procedure described by Grossman and Konturek, Gastroenterology, 66, 517 (1974) was followed. […] Each 15 minute sample of gastric juice is measured to the nearest 0.5 ml. and titratable acidity against 0.02 N NaOH (endpoint pH 7.0) is measured with an Autoburet and pH meter (radiometer). The percent inhibition of acid output is calculated as described in the pylorus ligated rat procedure.

## C#CCN=C(NC#N)NCCSCc1[nH]cnc1C [BL-5641, N-Cyano-N'-{2-[(4-methyl-5-imidazolyl)methylthio]ethyl}-N"-propargylguanidine]
Histamine H2-receptors; histamine ED50 in presence of test compound 1 × 10^-5 M, 30 min incubation
  Histamine ED50 With 95% Confidence Limits: 12.44 µg/mL
Histamine H2-receptors; isolated guinea pig atria, in words
  histamine H2-receptor antagonist potency vs cimetidine: more potent than cimetidine
Histamine H2-receptors; test compound 1 × 10^-5 M
  Concentration-Response Curve Displacement Factor: 32.7
Gastric acid output; 10 μMole/kg. ip, 2 h (BL-5641 2.76 mg/kg; cimetidine 2.5 mg/kg)
  % Inhibition of Acid Output: 37%
Gastric acid output; 20 μMole/kg. ip, 2 h (BL-5641 5.53 mg/kg; cimetidine 5 mg/kg)
  % Inhibition of Acid Output: 61%
Gastric acid output; 40 μMole/kg. ip, 2 h (BL-5641 11.1 mg/kg; cimetidine 10 mg/kg)
  % Inhibition of Acid Output: 80%
Gastric acid output; Rattus norvegicus, ip, 2 h, read-out: ED50 (inhibition of acid output)
  ED50: ~11 µmol/kg
Gastric acid output; in words
  potency in inhibition of gastric acid output vs cimetidine: at least as potent as cimetidine; also recorded: more potent than cimetidine
[1]; 0.75 μM/kg. iv, 15 min, dog 23553, N=1
  % Inhibition Acid Output: 51%
[1]; 0.75 μM/kg. iv, 30 min, dog 23553, N=1
  % Inhibition Acid Output: 38%
[1]; 0.75 μM/kg. iv, 45 min, dog 23553, N=1
  % Inhibition Acid Output: 28%
[1]; 0.75 μM/kg. iv, 60 min, dog 23553, N=1
  % Inhibition Acid Output: 28%
[1]; 0.75 μM/kg. iv, 75 min, dog 23553, N=1
  % Inhibition Acid Output: 31%
[1]; 0.75 μM/kg. iv, 90 min, dog 23553, N=1
  % Inhibition Acid Output: 43%
[1]; 0.75 μM/kg. iv, 105 min, dog 23553, N=1
  % Inhibition Acid Output: 42%
[1]; 0.75 μM/kg. iv, 120 min, dog 23553, N=1
  % Inhibition Acid Output: 46%
[1]; 1.5 μM/kg. iv, 15 min, dog 24895, N=1
  % Inhibition Acid Output: 82%
[1]; 1.5 μM/kg. iv, 30 min, dog 24895, N=1
  % Inhibition Acid Output: 72%
[1]; 1.5 μM/kg. iv, 45 min, dog 24895, N=1
  % Inhibition Acid Output: 53%
[1]; 1.5 μM/kg. iv, 60 min, dog 24895, N=1
  % Inhibition Acid Output: 49%
[1]; 1.5 μM/kg. iv, 75 min, dog 24895, N=1
  % Inhibition Acid Output: 33%
[1]; 1.5 μM/kg. iv, 90 min, dog 24895, N=1
  % Inhibition Acid Output: 7%
[1]; 1.5 μM/kg. iv, 105 min, dog 24895, N=1
  % Inhibition Acid Output: 0%
[1]; 1.5 μM/kg. iv, 120 min, dog 24895, N=1
  % Inhibition Acid Output: 0%
[1]; 3 μM/kg. iv, 15 min, dog 23606, N=1
  % Inhibition Acid Output: 60%
[1]; 3 μM/kg. iv, 30 min, dog 23606, N=1
  % Inhibition Acid Output: 59%
[1]; 3 μM/kg. iv, 45 min, dog 23606, N=1
  % Inhibition Acid Output: 36%
[1]; 3 μM/kg. iv, 60 min, dog 23606, N=1
  % Inhibition Acid Output: 34%
[1]; 3 μM/kg. iv, 75 min, dog 23606, N=1
  % Inhibition Acid Output: 32%
[1]; 3 μM/kg. iv, 90 min, dog 23606, N=1
  % Inhibition Acid Output: 42%
[1]; 3 μM/kg. iv, 105 min, dog 23606, N=1
  % Inhibition Acid Output: 24%
[1]; 3 μM/kg. iv, 120 min, dog 23606, N=1
  % Inhibition Acid Output: 0%
[1]; 6 μM/kg. iv, 15 min, dog 22619, N=1
  % Inhibition Acid Output: 82%
[1]; 6 μM/kg. iv, 30 min, dog 22619, N=1
  % Inhibition Acid Output: 99%
[1]; 6 μM/kg. iv, 45 min, dog 22619, N=1
  % Inhibition Acid Output: 99%
[1]; 6 μM/kg. iv, 60 min, dog 22619, N=1
  % Inhibition Acid Output: 95%
[1]; 6 μM/kg. iv, 75 min, dog 22619, N=1
  % Inhibition Acid Output: 78%
[1]; 6 μM/kg. iv, 90 min, dog 22619, N=1
  % Inhibition Acid Output: 76%
[1]; 6 μM/kg. iv, 105 min, dog 22619, N=1
  % Inhibition Acid Output: 52%
[1]; 6 μM/kg. iv, 120 min, dog 22619, N=1
  % Inhibition Acid Output: 53%
[1]; 12 μM/kg. iv, 15 min, dog 24136, N=1
  % Inhibition Acid Output: 66%
[1]; 12 μM/kg. iv, 30 min, dog 24136, N=1
  % Inhibition Acid Output: 99%
[1]; 12 μM/kg. iv, 45 min, dog 24136, N=1
  % Inhibition Acid Output: 99%
[1]; 12 μM/kg. iv, 60 min, dog 24136, N=1
  % Inhibition Acid Output: 99%
[1]; 12 μM/kg. iv, 75 min, dog 24136, N=1
  % Inhibition Acid Output: 99%
[1]; 12 μM/kg. iv, 90 min, dog 24136, N=1
  % Inhibition Acid Output: 93%
[1]; 12 μM/kg. iv, 105 min, dog 24136, N=1
  % Inhibition Acid Output: 91%
[1]; 12 μM/kg. iv, 120 min, dog 24136, N=1
  % Inhibition Acid Output: 73%
[1]; equal (equimolar) doses iv, in words
  duration of activity vs cimetidine: of longer duration with BL-5641 than with cimetidine; also recorded: longer duration of activity than cimetidine at equal doses
[1]; equimolar doses iv, in words
  degree of inhibition of gastric acid output vs cimetidine: consistently greater
[1]; iv, in words
  inhibitor of gastric acid output, potency vs cimetidine: more potent and/or longer acting than cimetidine; also recorded: more potent than cimetidine
  onset of effect on gastric acid output: immediate inhibitory effect on gastric acid output
